Values of other authors in patent US9851354B2, “Methods of treating fragile X syndrome and related disorders” (Alcobra Ltd., priority 2013, dated 2017).

Settings: cited from earlier work
[1] = randomized placebo-controlled trial in autistic children (McCracken 2002)

Cc1nc2n(c(=O)c1CCN1CCC(c3noc4cc(F)ccc34)CC1)CCCC2 [risperidone]
social isolation and communication (autistic children): not improved | adverse events [1]: weight gain, increased appetite, fatigue, drowsiness, dizziness, and drooling | irritability subscale of the Aberrant Behavior Checklist and Clinical Global Impressions-Improvement [1]: significant improvement | adverse side effects associated with use (use in autistic children): extrapyramidal symptoms and dyskinesias
